Measured values reported in patent US20100183745A1, “Electrochemical Device for Biocide Treatment in Agricultural Applications” (Industrie De Nora S.P.A., priority 2007, published 2010).

Tested on: Erwinia amylovora
Test: SEM analysis of bacterial colonies on treated pear leaves
Assay type: in vivo, pear trees of white William variety
Settings: leaves apparently not affected by the disease; copious bacterial colonies prior to treatment; once a day during 10 days
From the text: The feed vessel was loaded with a solution at neutral pH containing 1 g/l of NaCl and 2.5 g/l of KCl, and the service vessel was loaded with a tap-water stream whose flow-rate was controlled by a downstream UV probe, calibrated so as to detect the concentration of outlet hypochlorous acid by adsorption at 292 nm adjusting the same at a value comprised between 0.10 and 0.15 g/l at sprinkling stage. The outflow of electrolysis cell to the service vessel was adjusted at a flow-rate of 20 l/h.
The device regulated in this way was used for sprinkling the leaves of 50 pear trees of white William variety affected with fire blight, a disease induced by Erwinia amylovora bacterium causing stems, leaves and flowers of the plant to turn brown in localised groups. […] Each treatment was repeated once a day, during 10 subsequent days.

In the case of `O.O.O.O.O.O=S(=O)([O-])[O-].[Cu+2]` [cupric sulphate], the “bacterial colonies on leaves by SEM analysis after the treatment” value is reported as “substantial reduction of the phenomenon, still showed the signs of traces of bacterial colonies”.
